Legend:
[1] = test system: NCI-H522; assay: NCI DTP cell line screen (SRB), Non-Small Cell Lung Cancer; assay type: cell-based, human
Description: (§1) Screening of compounds 70 and 71 against several cancer cell lines The human tumor cell lines of the cancer screening panel are grown in RPMI 1640 medium containing 5% fetal bovine serum and 2 mM L-glutamine. For a typical screening experiment, cells are inoculated into 96 well microtiter plates in 100 μL at plating densities ranging from 5,000 to 40,000 cells/well depending on the doubling time of individual cell lines. After cell inoculation, the microtiter plates are incubated at 37° C., 5% CO2, 95% air and 100% relative humidity for 24 h prior to addition of experimental drugs.
(§2) After 24 h, two plates of each cell line are fixed in situ with TCA, to represent a measurement of the cell population for each cell line at the time of drug addition (Tz). Experimental drugs are solubilized in dimethyl sulfoxide at 400-fold the desired final maximum test concentration and stored frozen prior to use. At the time of drug addition, an aliquot of frozen concentrate is thawed and diluted to twice the desired final maximum test concentration with complete medium containing 50 μg/ml gentamicin. Additional four, 10-fold or ½ log serial dilutions are made to provide a total of five drug concentrations plus control. Aliquots of 100 μl of these different drug dilutions are added to the appropriate microtiter wells already containing 100 μl of medium, resulting in the required final drug concentrations.
(§3) Following drug addition, the plates are incubated for an additional 48 h at 37° C., 5% CO2, 95% air, and 100% relative humidity. For adherent cells, the assay is terminated by the addition of cold TCA. Cells are fixed in situ by the gentle addition of 50 μl of cold 50% (w/v) TCA (final concentration, 10% TCA) and incubated for 60 minutes at 4° C. The supernatant is discarded, and the plates are washed five times with tap water and air dried. Sulforhodamine B (SRB) solution (100 μl) at 0.4% (w/v) in 1% acetic acid is added to each well, and plates are incubated for 10 minutes at room temperature. After staining, unbound dye is removed by washing five times with 1% acetic acid and the plates are air dried. Bound stain is subsequently solubilized with 10 mM trizma base, and the absorbance is read on an automated plate reader at a wavelength of 515 nm. For suspension cells, the methodology is the same except that the assay is terminated by fixing settled cells at the bottom of the wells by gently adding 50 μl of 80% TCA (final concentration, 16% TCA). Using the seven absorbance measurements [time zero, (Tz), control growth, (C), and test growth in the presence of drug at the five concentration levels (Ti)], the percentage growth is calculated at each of the drug concentrations levels. Percentage growth inhibition is calculated as: [(Ti−Tz)/(C−Tz)]×100 for concentrations for which Ti>/=Tz [(Ti−Tz)/Tz]×100 for concentrations for which Ti<Tz
(§4) Three dose response parameters are calculated for each experimental agent. […] The drug concentration resulting in total growth inhibition (TGI) is calculated from Ti=Tz. […] Values are calculated for each of these three parameters if the level of activity is reached; however, if the effect is not reached or is exceeded, the value for that parameter is expressed as greater or less than the maximum or minimum concentration tested.
(§5) The methods described were used to test compounds 70 and 71 on a panel of sixty cell lines under a screening service provided by the Developmental Therapeutics Program at the National Institutes of Health. Shown in FIG. 1C are 1, RPMI-8226 leukemia cells; 2; NCI-H322M non-small cell lung cancer cells; 3, HT29 colon cancer cells; 4, U251 CNS cancer cells; 5, SK-MEL-28 melanoma cancer cells; 6, SK-OV-3 ovarian cancer cells; 7, RXF 393 renal cancer cells; 8, PC-3 prostate cancer cells; 9, MDA-MB-231 breast cancer cells.

[2] = test system: MALME-3M; assay: NCI DTP cell line screen (SRB), Melanoma; assay type: cell-based
[3] = test system: OVCAR-3; assay: NCI DTP cell line screen (SRB), Ovarian Cancer; assay type: cell-based
Description: as §1, §2, §3, §4, §5

[4] = test system: OVCAR-8; assay: NCI DTP cell line screen (SRB), Ovarian Cancer; assay type: cell-based; conditions: OVCAR 8
Description: as §1, §2, §3, §4, §5

[5] = test system: OVCAR-5; assay: NCI DTP cell line screen (SRB), Ovarian Cancer; assay type: cell-based
Description: as §1, §2, §3, §4, §5

[6] = test system: OVCAR-4; assay: NCI DTP cell line screen (SRB), Ovarian Cancer; assay type: cell-based
Description: as §1, §2, §3, §4, §5

[7] = test system: IGROV1; assay: NCI DTP cell line screen (SRB), Ovarian Cancer; assay type: cell-based
Description: as §1, §2, §3, §4, §5

[8] = test system: UACC-62; assay: NCI DTP cell line screen (SRB), Melanoma; assay type: cell-based
[9] = biological target: COX-2 (Homo sapiens, UniProt P35354); assay: COX-2 inhibitory activity; assay type: biochemical; conditions: concentrations up to 50 μM
[10] = read-out: LC50 (the source's name)

Sequence of COX-2 (P35354 18-604): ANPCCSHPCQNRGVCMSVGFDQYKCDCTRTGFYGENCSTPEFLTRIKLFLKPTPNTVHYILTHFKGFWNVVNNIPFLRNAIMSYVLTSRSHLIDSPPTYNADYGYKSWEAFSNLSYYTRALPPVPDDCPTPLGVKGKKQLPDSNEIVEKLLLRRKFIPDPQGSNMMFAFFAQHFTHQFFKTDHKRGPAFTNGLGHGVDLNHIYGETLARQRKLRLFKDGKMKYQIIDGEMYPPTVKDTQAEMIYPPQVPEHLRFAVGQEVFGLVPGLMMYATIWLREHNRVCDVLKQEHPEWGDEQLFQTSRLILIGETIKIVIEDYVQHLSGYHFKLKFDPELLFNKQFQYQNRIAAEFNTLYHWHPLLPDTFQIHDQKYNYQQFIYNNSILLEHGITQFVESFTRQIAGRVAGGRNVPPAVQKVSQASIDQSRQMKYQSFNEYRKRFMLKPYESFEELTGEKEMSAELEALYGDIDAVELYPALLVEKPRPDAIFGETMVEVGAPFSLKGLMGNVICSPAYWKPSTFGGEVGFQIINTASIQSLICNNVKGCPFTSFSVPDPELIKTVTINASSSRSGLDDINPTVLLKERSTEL

N=C(N)Nc1ccc(-n2nc(C(F)(F)F)cc2-c2ccc3c(ccc4ccccc43)c2)cc1 [Compound 71, 4-[5-(2-Phenanthrenyl)-3-(trifluoromethyl)-1H-pyrazol-1-yl]-phenyl-guanidine]
GI50 [1]: 1450 nM | Mean Optical Densities ([1]; Log10 Concentration −4.0): 0.439 | Percent Growth ([1]; Log10 Concentration −4.0): −43% | Mean Optical Densities ([1]; Log10 Concentration −5.0): 0.037 | Percent Growth ([1]; Log10 Concentration −5.0): −95% | Mean Optical Densities ([1]; Log10 Concentration −6.0): 1.471 | Percent Growth ([1]; Log10 Concentration −6.0): 78% | Mean Optical Densities ([1]; Log10 Concentration −7.0): 1.558 | Percent Growth ([1]; Log10 Concentration −7.0): 87% | Mean Optical Densities ([1]; Log10 Concentration −8.0): 1.509 | Percent Growth ([1]; Log10 Concentration −8.0): 82% | TGI ([1]; in M (unit assumed)): 2.82E−06 | GI50 [2]: 1010 nM | TGI [2]: 2.33E−06 | Mean Optical Densities ([2]; Log10 Concentration −4.0): 0.333 | Percent Growth ([2]; Log10 Concentration −4.0): −50% | Mean Optical Densities ([2]; Log10 Concentration −5.0): 0.089 | Percent Growth ([2]; Log10 Concentration −5.0): −87% | Mean Optical Densities ([2]; Log10 Concentration −6.0): 0.826 | Percent Growth ([2]; Log10 Concentration −6.0): 50% | Mean Optical Densities ([2]; Log10 Concentration −7.0): 0.838 | Percent Growth ([2]; Log10 Concentration −7.0): 54% | Mean Optical Densities ([2]; Log10 Concentration −8.0): 0.832 | Percent Growth ([2]; Log10 Concentration −8.0): 52% | CC50 [2, 10]: 100000 nM | GI50 [3]: 1400 nM | TGI [3]: 2.70E−06 | Mean Optical Densities ([3]; Log10 Concentration −4.0): 0.131 | Percent Growth ([3]; Log10 Concentration −4.0): −72% | Mean Optical Densities ([3]; Log10 Concentration −5.0): −0.043 | Percent Growth ([3]; Log10 Concentration −5.0): −100% | Mean Optical Densities ([3]; Log10 Concentration −6.0): 0.770 | Percent Growth ([3]; Log10 Concentration −6.0): 76% | Mean Optical Densities ([3]; Log10 Concentration −7.0): 0.792 | Percent Growth ([3]; Log10 Concentration −7.0): 81% | Mean Optical Densities ([3]; Log10 Concentration −8.0): 0.833 | Percent Growth ([3]; Log10 Concentration −8.0): 91% | CC50 [3, 10]: 5200 nM | GI50 [4]: 1690 nM | TGI [4]: 3.05E−06 | Mean Optical Densities ([4]; Log10 Concentration −4.0): 0.126 | Percent Growth ([4]; Log10 Concentration −4.0): −69% | Mean Optical Densities ([4]; Log10 Concentration −5.0): −0.001 | Percent Growth ([4]; Log10 Concentration −5.0): −100% | Mean Optical Densities ([4]; Log10 Concentration −6.0): 0.934 | Percent Growth ([4]; Log10 Concentration −6.0): 94% | Mean Optical Densities ([4]; Log10 Concentration −7.0): 0.946 | Percent Growth ([4]; Log10 Concentration −7.0): 96% | Mean Optical Densities ([4]; Log10 Concentration −8.0): 0.923 | Percent Growth ([4]; Log10 Concentration −8.0): 92% | CC50 [4, 10]: 5520 nM | GI50 [5]: 1730 nM | TGI [5]: 3.11E−06 | Mean Optical Densities ([5]; Log10 Concentration −4.0): 0.474 | Percent Growth ([5]; Log10 Concentration −4.0): −8% | Mean Optical Densities ([5]; Log10 Concentration −5.0): −0.033 | Percent Growth ([5]; Log10 Concentration −5.0): −100% | Mean Optical Densities ([5]; Log10 Concentration −6.0): 1.559 | Percent Growth ([5]; Log10 Concentration −6.0): 97% | Mean Optical Densities ([5]; Log10 Concentration −7.0): 1.437 | Percent Growth ([5]; Log10 Concentration −7.0): 86% | Mean Optical Densities ([5]; Log10 Concentration −8.0): 1.538 | Percent Growth ([5]; Log10 Concentration −8.0): 95% | GI50 [6]: 1310 nM | TGI [6]: 2.58E−06 | Mean Optical Densities ([6]; Log10 Concentration −4.0): 0.179 | Percent Growth ([6]; Log10 Concentration −4.0): −66% | Mean Optical Densities ([6]; Log10 Concentration −5.0): −0.001 | Percent Growth ([6]; Log10 Concentration −5.0): −100% | Mean Optical Densities ([6]; Log10 Concentration −6.0): 0.945 | Percent Growth ([6]; Log10 Concentration −6.0): 70% | Mean Optical Densities ([6]; Log10 Concentration −7.0): 0.999 | Percent Growth ([6]; Log10 Concentration −7.0): 79% | Mean Optical Densities ([6]; Log10 Concentration −8.0): 1.011 | Percent Growth ([6]; Log10 Concentration −8.0): 81% | CC50 [6, 10]: 5080 nM | GI50 [7]: 1070 nM | TGI [7]: 2.26E−06 | Mean Optical Densities ([7]; Log10 Concentration −4.0): 0.216 | Percent Growth ([7]; Log10 Concentration −4.0): −53% | Mean Optical Densities ([7]; Log10 Concentration −5.0): −0.039 | Percent Growth ([7]; Log10 Concentration −5.0): −100% | Mean Optical Densities ([7]; Log10 Concentration −6.0): 0.806 | Percent Growth ([7]; Log10 Concentration −6.0): 55% | Mean Optical Densities ([7]; Log10 Concentration −7.0): 0.983 | Percent Growth ([7]; Log10 Concentration −7.0): 83% | Mean Optical Densities ([7]; Log10 Concentration −8.0): 0.997 | Percent Growth ([7]; Log10 Concentration −8.0): 85% | CC50 [7, 10]: 4750 nM | GI50 [8]: 1440 nM | TGI [8]: 2.74E−06 | Mean Optical Densities ([8]; Log10 Concentration −4.0): 0.272 | Percent Growth ([8]; Log10 Concentration −4.0): −60% | Mean Optical Densities ([8]; Log10 Concentration −5.0): −0.041 | Percent Growth ([8]; Log10 Concentration −5.0): −100% | Mean Optical Densities ([8]; Log10 Concentration −6.0): 1.301 | Percent Growth ([8]; Log10 Concentration −6.0): 78% | Mean Optical Densities ([8]; Log10 Concentration −7.0): 1.338 | Percent Growth ([8]; Log10 Concentration −7.0): 83% | Mean Optical Densities ([8]; Log10 Concentration −8.0): 1.323 | Percent Growth ([8]; Log10 Concentration −8.0): 81% | CC50 [8, 10]: 5240 nM | COX-2 inhibitory activity [9]: nor was any measurable COX-2 inhibitory activity detected

— patent publication US8541460B2, “PDK-1/Akt signaling inhibitors” (The Ohio State University, priority 2003, dated 2013)
